Source: patent US12146131B2, “Testing apparatus and testing method” (HITACHI HIGH-TECH CORPORATION, priority 2019, dated 2024)

Assays:
Assay type in all cases: cell-based
bacteria [1] = assay: drug sensitivity test, bacterial area value from time-series microscopic images (image processing of first embodiment); conditions: FIG. 9
Description: (§1) In a drug sensitivity test for bacteria, it is important to measure properties of bacteria and increase or decrease in the number of bacteria, and in a third embodiment, for example, an example applied to the drug sensitivity test will be described. Also in the third embodiment, the fine particle testing apparatus 100 described in the first embodiment can be used. However, the sample solution 108 contains bacteria, a medium component necessary for growth of the bacteria, and an antimicrobial agent to be tested. The fine particle testing apparatus 100 is temperature-adjusted to a temperature suitable for growth of the bacteria, for example, 37° C. Further, a plate having 96 holes or 384 holes can be used as the testing plate 102.
FIG. 9 is a diagram illustrating a relationship of the area of a bacterial region corresponding to the sum of area values of fine particles obtained by executing the processing of steps 200 to 204 (image processing of the first embodiment) on a plurality of time-series images obtained by the imaging part 105 of the fine particle testing apparatus 100. This measurement result is a result of imaging bacteria cultured for 8 hours in a culture solution containing ampicillin/sulbactam at concentrations of 0.5/0.25 μg/mL and 32/16 μg/mL.

bacteria [2] = assay: drug sensitivity test, turbidity measurement of the well after 18 hours of culture; conditions: turbidity after 18 hours from start of culture
Description: as §1, with “Further, a plate having 96 holes or 384 holes can be used as the testing plate 102.” left out
Here, the sensitivity of this bacterium to ampicillin/sulbactam is found to be “proliferation” at a concentration of 0.5/0.25 μg/mL and “suppression” at a concentration of 32/16 μg/mL by turbidity measurement of the well after 18 hours from the start of culture. […] This example has shown that proliferation/suppression is determined at two concentrations of the antimicrobial agent, but actually, the concentration of the drug is more finely changed to determine proliferation/suppression. The minimum antimicrobial agent concentration is referred to as minimum inhibitory concentration (MIC), and the MIC is preferably calculated based on the result of proliferation/suppression. […]

Pseudomonas aeruginosa [3] = assay: drug sensitivity test, turbidity measurement after 18 hours of culture; conditions: turbidity after 18 hours from start of culture
Pseudomonas aeruginosa [4] = assay: drug sensitivity test, bacterial area value from time-series microscopic images (image processing of second embodiment); conditions: cultured 12 hours, FIG. 10
Description: as §1
In the fine particle testing apparatus 100, an image is acquired by focusing the lens 104 on the vicinity of the well bottom surface of the testing plate 102 for each imaging. However, in a case where the fine particles are bacteria, in particular, highly motile bacteria, even if adjustment is performed for each imaging so as to focus on one well each time, an image with a clear contour may not be acquired, resulting in an image as illustrated in FIGS. 8A to 8B. As an example of such a case, a measurement example using Pseudomonas aeruginosa considered to have high motility as a bacterium different from the result of FIG. 9 will be described (see FIG. 10). […]

Row | Substance | bacterial area value over time (bacteria [1]; ampicillin/sulbactam 0.5/0.25 μg/mL, cultured 8 hours) | bacterial area value over time (bacteria [1]; ampicillin/sulbactam 32/16 μg/mL, within 8 hours from start of culture) | sensitivity of bacterium (proliferation/suppression) (bacteria [2]; ampicillin/sulbactam 0.5/0.25 μg/mL) | sensitivity of bacterium (proliferation/suppression) (bacteria [2]; ampicillin/sulbactam 32/16 μg/mL) | sensitivity of bacterium (proliferation/suppression) (Pseudomonas aeruginosa [3]; gentamicin 0.12 μg/mL) | sensitivity of bacterium (proliferation/suppression) (Pseudomonas aeruginosa [3]; gentamicin 8 μg/mL) | bacterial area value over time (Pseudomonas aeruginosa [4]; gentamicin 0.12 μg/mL) | bacterial area value over time (Pseudomonas aeruginosa [4]; gentamicin 8 μg/mL)
1 | ampicillin/sulbactam | starts to increase exponentially after 2 hours from the start of culture | substantially unchanged from the initial value | proliferation | suppression | – | – | – | –
2 | gentamicin | – | – | – | – | proliferation | suppression | starts to increase exponentially after 4 hours from the start of culture | slightly increases
